One data set deals with T1, CDK7 (Homo sapiens, UniProt P50613).
T1 construct: made in house; host or cells: E. coli BL21-derived host (T7 phage) or HEK-293 cells
The data set can be described thus: Kinome screen, CDK7. Type of data set: binding. The following applies: screened at 1 μM. How it is done: (§1) Compounds 1 and C-1 were screened against other kinases to evaluate their selectivity profile.
(§2) Kinase-tagged T7 phage strains were grown in parallel in 24-well blocks in an E. coli host derived from the BL21 strain. E. coli were grown to log-phase and infected with T7 phage from a frozen stock (multiplicity of infection=0.4) and incubated with shaking at 32° C. until lysis (90-150 minutes). The lysates were centrifuged (6,000×g) and filtered (0.2 μm) to remove cell debris. The remaining kinases were produced in HEK-293 cells and subsequently tagged with DNA for qPCR detection.
(§3) Streptavidin-coated magnetic beads were treated with biotinylated small molecule ligands for 30 minutes at room temperature to generate affinity resins for kinase assays. The liganded beads were blocked with excess biotin and washed with blocking buffer (SeaBlock (Pierce), 1% BSA, 0.05% Tween 20, 1 mM DTT) to remove unbound ligand and to reduce non-specific phage binding. Binding reactions were assembled by combining kinases, liganded affinity beads, and test compounds in 1× binding buffer (20% SeaBlock, 0.17×PBS, 0.05% Tween 20, 6 mM DTT). Test compounds were prepared as 40× stocks in 100% DMSO and directly diluted into the assay. All reactions were performed in polypropylene 384-well plates in a final volume of 0.04 ml. […] The kinase concentration in the eluates was measured by qPCR. […]

In a further data set the target is T2, EPHB6 (Homo sapiens, UniProt O15197).
T2 construct: made in house; host or cells: E. coli BL21-derived host (T7 phage) or HEK-293 cells
T2 sequence (O15197 32-1021): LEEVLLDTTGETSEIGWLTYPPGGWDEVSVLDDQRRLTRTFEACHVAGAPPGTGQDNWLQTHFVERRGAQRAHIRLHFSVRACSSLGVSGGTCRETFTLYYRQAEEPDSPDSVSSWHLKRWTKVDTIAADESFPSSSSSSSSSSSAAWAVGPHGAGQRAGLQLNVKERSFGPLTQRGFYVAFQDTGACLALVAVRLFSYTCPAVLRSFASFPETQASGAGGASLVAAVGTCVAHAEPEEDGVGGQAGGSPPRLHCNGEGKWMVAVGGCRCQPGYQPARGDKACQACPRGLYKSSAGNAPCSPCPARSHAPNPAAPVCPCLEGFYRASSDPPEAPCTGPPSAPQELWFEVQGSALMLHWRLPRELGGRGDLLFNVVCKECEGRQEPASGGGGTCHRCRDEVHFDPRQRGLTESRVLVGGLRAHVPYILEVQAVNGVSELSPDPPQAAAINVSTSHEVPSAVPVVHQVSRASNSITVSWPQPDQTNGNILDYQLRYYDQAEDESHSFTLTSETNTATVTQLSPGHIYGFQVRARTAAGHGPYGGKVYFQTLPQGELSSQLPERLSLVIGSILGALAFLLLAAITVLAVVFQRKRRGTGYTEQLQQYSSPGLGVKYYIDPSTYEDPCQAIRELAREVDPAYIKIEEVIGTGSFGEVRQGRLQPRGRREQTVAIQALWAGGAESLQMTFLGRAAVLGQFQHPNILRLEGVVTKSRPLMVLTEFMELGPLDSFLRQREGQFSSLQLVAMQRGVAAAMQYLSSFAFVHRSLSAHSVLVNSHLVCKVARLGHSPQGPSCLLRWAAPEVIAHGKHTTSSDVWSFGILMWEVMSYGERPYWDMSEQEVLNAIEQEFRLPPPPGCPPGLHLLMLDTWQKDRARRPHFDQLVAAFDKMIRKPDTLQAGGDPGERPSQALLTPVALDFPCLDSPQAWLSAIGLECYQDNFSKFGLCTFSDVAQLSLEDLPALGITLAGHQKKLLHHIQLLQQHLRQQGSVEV
The data set can be described thus: Kinome screen, EPHB6. To be noted: screened at 1 μM. Type of data set: binding. How it is done: as §1, §2, §3

In the next data set the target is T3, GSK3B (Homo sapiens, UniProt P49841).
T3 construct: made in house; host or cells: E. coli BL21-derived host (T7 phage) or HEK-293 cells
T3 sequence (P49841 whole entry): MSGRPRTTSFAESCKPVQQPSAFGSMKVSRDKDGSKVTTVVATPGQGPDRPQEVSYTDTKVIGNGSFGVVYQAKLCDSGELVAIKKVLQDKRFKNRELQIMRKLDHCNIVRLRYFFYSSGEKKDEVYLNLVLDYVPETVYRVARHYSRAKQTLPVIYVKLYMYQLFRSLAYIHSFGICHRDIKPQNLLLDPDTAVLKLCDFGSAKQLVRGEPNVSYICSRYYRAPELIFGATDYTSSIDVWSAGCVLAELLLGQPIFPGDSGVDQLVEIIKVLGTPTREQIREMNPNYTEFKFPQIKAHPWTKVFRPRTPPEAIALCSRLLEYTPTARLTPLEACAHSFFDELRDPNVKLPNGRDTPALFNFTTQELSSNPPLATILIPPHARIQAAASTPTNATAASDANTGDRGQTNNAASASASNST
The data set can be described thus: Kinome screen, GSK3B. The following applies: screened at 1 μM. Type of data set: binding. The procedure:
as §1, §2, §3

A further data set has as its target T4, KIT (Homo sapiens, UniProt P10721).
T4 construct: made in house; host or cells: E. coli BL21-derived host (T7 phage) or HEK-293 cells
The data set can be described thus: Kinome screen, KIT. Type of data set: binding. To be noted: screened at 1 μM. How it is done:
as §1, §2, §3

In the next data set the target is T5, CDK2 (Homo sapiens, UniProt P24941).
T5 construct: made in house; host or cells: E. coli BL21-derived host (T7 phage) or HEK-293 cells
The data set can be described thus: Kinome screen, CDK2. Type of data set: binding. To be noted: screened at 1 μM. The procedure:
as §1, §2, §3

For another data set, the target named is T6, PLK4 (Homo sapiens, UniProt O00444).
T6 construct: made in house; host or cells: E. coli BL21-derived host (T7 phage) or HEK-293 cells
The data set can be described thus: Kinome screen, PLK4. Type of data set: binding. The following applies: screened at 1 μM. The procedure:
as §1, §2, §3

The target in the next data set is T7, PAK4 (Homo sapiens, UniProt O96013).
T7 construct: made in house; host or cells: E. coli BL21-derived host (T7 phage) or HEK-293 cells
T7 sequence (O96013 whole entry): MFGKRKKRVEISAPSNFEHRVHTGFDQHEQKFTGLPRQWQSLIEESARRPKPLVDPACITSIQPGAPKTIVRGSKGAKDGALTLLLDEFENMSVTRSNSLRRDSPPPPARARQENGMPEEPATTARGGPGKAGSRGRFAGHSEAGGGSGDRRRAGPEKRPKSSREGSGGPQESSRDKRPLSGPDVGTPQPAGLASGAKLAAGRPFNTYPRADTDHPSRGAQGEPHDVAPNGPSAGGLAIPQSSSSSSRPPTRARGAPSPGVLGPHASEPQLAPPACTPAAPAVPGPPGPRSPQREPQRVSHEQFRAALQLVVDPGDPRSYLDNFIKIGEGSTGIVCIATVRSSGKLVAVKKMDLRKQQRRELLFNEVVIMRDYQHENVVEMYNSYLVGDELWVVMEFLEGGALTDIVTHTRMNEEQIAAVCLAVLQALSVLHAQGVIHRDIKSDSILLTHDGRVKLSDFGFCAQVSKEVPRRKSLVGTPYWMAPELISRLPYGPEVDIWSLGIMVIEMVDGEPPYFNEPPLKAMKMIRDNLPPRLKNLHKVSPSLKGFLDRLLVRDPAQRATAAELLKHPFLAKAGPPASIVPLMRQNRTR
The data set can be described thus: Kinome screen, PAK4. Type of data set: binding. To be noted: screened at 1 μM. How it is done:
as §1, §2, §3

A further data set deals with T8, ALK (Homo sapiens, UniProt Q9UM73).
T8 construct: made in house; host or cells: E. coli BL21-derived host (T7 phage) or HEK-293 cells
The data set can be described thus: Kinome screen, ALK. Type of data set: binding. To be noted: screened at 1 μM. The procedure:
as §1, §2, §3

A further data set deals with T9, CSNK1D (Homo sapiens, UniProt P48730).
T9 construct: made in house; host or cells: E. coli BL21-derived host (T7 phage) or HEK-293 cells
The data set can be described thus: Kinome screen, CSNK1D. Type of data set: binding. The following applies: screened at 1 μM. The procedure: as §1, §2, §3

The target in a further data set is T10, CSF1R (Homo sapiens, UniProt P07333).
T10 construct: made in house; host or cells: E. coli BL21-derived host (T7 phage) or HEK-293 cells
T10 sequence (P07333 20-972): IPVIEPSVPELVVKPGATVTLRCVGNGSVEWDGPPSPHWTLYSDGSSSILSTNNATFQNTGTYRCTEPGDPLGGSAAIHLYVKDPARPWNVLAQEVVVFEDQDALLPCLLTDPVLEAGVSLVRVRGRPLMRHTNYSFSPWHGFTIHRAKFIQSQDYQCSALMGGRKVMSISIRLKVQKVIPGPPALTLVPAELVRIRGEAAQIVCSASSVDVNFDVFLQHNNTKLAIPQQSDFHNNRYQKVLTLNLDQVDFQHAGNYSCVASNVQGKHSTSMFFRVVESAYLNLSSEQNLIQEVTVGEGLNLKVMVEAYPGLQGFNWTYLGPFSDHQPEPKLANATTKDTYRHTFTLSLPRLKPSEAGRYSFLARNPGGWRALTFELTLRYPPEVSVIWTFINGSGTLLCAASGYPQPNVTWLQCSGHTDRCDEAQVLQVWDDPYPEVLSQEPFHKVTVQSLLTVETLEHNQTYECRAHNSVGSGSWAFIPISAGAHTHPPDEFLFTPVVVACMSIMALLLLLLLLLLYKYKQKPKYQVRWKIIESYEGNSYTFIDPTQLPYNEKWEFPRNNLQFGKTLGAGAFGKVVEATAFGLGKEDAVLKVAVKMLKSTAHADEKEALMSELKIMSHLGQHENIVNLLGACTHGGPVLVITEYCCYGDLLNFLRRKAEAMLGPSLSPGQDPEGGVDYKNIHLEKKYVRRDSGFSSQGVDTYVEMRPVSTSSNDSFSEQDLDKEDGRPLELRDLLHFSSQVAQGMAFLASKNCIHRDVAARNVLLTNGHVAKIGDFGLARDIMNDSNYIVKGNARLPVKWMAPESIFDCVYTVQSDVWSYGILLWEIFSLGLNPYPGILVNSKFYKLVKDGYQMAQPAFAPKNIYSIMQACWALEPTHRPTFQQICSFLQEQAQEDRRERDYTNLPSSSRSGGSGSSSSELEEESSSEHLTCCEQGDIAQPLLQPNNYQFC
The data set can be described thus: Kinome screen, CSF1R. Type of data set: binding. To be noted: screened at 1 μM. The procedure: as §1, §2, §3

Another data set has as its target T11, PKAC-ALPHA (Homo sapiens, UniProt P17612).
T11 construct: made in house; host or cells: E. coli BL21-derived host (T7 phage) or HEK-293 cells
The data set can be described thus: Kinome screen, PKAC-ALPHA. Type of data set: binding. To be noted: screened at 1 μM. How it is done:
as §1, §2, §3

The target of a further data set is T12, CDK9 (Homo sapiens, UniProt P50750).
T12 construct: made in house; host or cells: E. coli BL21-derived host (T7 phage) or HEK-293 cells
The data set can be described thus: Kinome screen, CDK9. To be noted: screened at 1 μM. Type of data set: binding. The procedure: as §1, §2, §3

Another data set concerns the target T13, AURKA (Homo sapiens, UniProt O14965).
T13 construct: made in house; host or cells: E. coli BL21-derived host (T7 phage) or HEK-293 cells
The data set can be described thus: Kinome screen, AURKA. Type of data set: binding. The following applies: screened at 1 μM. The procedure:
as §1, §2, §3

The next data set addresses T14, SYK (Homo sapiens, UniProt P43405).
T14 construct: made in house; host or cells: E. coli BL21-derived host (T7 phage) or HEK-293 cells
The data set can be described thus: Kinome screen, SYK. The following applies: screened at 1 μM. Type of data set: binding. The procedure: as §1, §2, §3

For the next data set, the target named is T15, SLK (Homo sapiens, UniProt Q9H2G2).
T15 construct: made in house; host or cells: E. coli BL21-derived host (T7 phage) or HEK-293 cells
The data set can be described thus: Kinome screen, SLK. Type of data set: binding. To be noted: screened at 1 μM. How it is done:
as §1, §2, §3

For the next data set, the target named is T16, SRC (Homo sapiens, UniProt P12931).
T16 construct: made in house; host or cells: E. coli BL21-derived host (T7 phage) or HEK-293 cells
T16 sequence (P12931 whole entry): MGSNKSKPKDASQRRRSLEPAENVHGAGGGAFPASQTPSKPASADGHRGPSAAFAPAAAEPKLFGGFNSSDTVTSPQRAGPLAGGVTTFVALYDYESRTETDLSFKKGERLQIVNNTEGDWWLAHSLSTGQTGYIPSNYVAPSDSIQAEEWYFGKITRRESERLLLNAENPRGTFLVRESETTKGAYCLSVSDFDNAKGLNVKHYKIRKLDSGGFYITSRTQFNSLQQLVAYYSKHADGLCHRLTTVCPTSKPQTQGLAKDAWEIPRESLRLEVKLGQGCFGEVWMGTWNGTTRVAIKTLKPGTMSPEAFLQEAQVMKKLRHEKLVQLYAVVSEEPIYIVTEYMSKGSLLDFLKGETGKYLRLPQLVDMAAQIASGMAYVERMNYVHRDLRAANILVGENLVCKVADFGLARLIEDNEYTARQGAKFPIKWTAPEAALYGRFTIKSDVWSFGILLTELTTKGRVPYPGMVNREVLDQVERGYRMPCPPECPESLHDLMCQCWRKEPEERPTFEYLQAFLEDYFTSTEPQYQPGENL
The data set can be described thus: Kinome screen, SRC. To be noted: screened at 1 μM. Type of data set: binding. How it is done:
as §1, §2, §3

The next data set deals with T17, VEGFR2 (Homo sapiens, UniProt P35968).
T17 construct: made in house; host or cells: E. coli BL21-derived host (T7 phage) or HEK-293 cells
The data set can be described thus: Kinome screen, VEGFR2. Type of data set: binding. The following applies: screened at 1 μM. The procedure: as §1, §2, §3

The subject of data set [1] is BEAS-2B human lung epithelial cells. The data set can be described thus: CellTiter-Glo cell viability/cytotoxicity assay. Type of data set: cell-based. The following applies: BEAS-2B cells; 48 h; 15% inhibition threshold. The procedure:
A CellTiter-Glo luminescent cell viability/cytotoxicity assay was carried out in BEAS-2B human lung epithelial cells (ATCC) under the normal growth condition.
Cells were grown at 37° C. in a 5% CO2 humidified incubator in 50% DMEM/50% F-12 medium (Life Technologies) supplemented with 10% FBS (Hyclone), 100 U/mL penicillin, 100 μg/mL streptomycin (Life Technologies), and 2 mM GlutaMAX (Life Technologies). On day 1 of the assay, cells were seeded at a 500 cells/well density in white 384-well tissue culture plates (Corning) with 25 μL medium, and were allowed to adhere overnight in the incubator. On day 2 of the assay, 5 μL of medium containing dose-responses of test compounds was added, and incubated at 37° C. for 48 h. 30 μL of CellTiter-Glo detection solution (Promega) was subsequently added, mixed on an orbital shaker for 5 min, and incubated for additional 10 min before being read on the EnVision reader. Luminescence signals were recorded and percent DMSO control values were calculated.
For dose-response analysis, percent DMSO control data were plotted vs. compound concentrations to derive dose-response curves by line connecting each data point. The concentration at which each curve crosses the 15% inhibition threshold is defined as CC15.
On the technique in general: In ATP-based viability assays light output follows the ATP content of the culture.

T4 sequence (P10721 26-976): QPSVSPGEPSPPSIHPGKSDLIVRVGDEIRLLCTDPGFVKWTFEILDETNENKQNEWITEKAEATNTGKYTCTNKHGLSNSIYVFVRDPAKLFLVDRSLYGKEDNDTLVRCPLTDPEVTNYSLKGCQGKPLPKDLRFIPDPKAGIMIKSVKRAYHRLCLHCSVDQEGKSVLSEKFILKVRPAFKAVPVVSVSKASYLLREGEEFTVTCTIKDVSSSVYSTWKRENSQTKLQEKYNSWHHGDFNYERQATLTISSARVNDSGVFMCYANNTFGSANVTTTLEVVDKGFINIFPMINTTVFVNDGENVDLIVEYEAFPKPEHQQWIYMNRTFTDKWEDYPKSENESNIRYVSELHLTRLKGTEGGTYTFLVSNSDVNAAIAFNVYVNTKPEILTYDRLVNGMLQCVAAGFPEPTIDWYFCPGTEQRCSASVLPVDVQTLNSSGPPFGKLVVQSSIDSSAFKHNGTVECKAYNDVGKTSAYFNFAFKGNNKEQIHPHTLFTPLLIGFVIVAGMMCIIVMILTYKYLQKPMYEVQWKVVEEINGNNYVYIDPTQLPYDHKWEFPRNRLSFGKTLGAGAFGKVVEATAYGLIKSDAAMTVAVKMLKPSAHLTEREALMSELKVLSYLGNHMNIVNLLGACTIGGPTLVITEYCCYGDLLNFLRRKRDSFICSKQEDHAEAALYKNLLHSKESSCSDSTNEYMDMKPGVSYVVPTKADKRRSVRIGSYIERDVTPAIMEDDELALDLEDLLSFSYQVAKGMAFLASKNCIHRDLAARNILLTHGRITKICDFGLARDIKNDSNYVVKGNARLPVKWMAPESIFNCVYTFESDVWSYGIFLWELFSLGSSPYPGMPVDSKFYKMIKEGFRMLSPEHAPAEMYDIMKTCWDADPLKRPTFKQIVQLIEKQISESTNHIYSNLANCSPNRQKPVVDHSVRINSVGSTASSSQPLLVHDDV
T13 sequence (O14965 whole entry): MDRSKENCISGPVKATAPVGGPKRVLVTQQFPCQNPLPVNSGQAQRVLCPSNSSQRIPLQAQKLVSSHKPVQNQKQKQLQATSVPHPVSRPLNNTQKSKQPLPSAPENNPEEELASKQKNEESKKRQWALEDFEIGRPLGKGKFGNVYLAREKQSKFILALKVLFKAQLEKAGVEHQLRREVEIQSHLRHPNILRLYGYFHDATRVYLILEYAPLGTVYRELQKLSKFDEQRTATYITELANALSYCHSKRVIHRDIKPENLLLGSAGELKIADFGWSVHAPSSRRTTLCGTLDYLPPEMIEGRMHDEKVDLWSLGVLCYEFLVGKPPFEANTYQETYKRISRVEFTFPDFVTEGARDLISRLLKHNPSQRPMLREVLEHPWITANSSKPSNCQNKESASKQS

Usually inhibition stands for the change of the read-out against control, counted positive when it falls. `CCc1cc(O)c(F)cc1-c1ccc2c(-c3nc4c([nH]3)CCN(C(=O)[C@]35C[C@H]3CCN5)C4)n[nH]c2c1` [Compound C-1, ((1S,5R)-2-azabicyclo[3.1.0]hexan-1-yl)(2-(6-(2-ethyl-5-fluoro-4-hydroxyphenyl)-1H-indazol-3-yl)-1,4,6,7-tetrahydro-5H-imidazo[4,5-c]pyridin-5-yl)methanone, reference compound]: the inhibition at 1 µM was determined as 98.8% against CDK7; 96.5% on EPHB6; 52% against GSK3B; 98.5% against KIT; 50% against CDK2; 40% on PLK4. For the same compound, the inhibition at 1 µM against PAK4 amounted to 89%; on ALK, 87%; against CSNK1D, 66%; against CSF1R it was 100%; against PKAC-ALPHA it was 55%; on CDK9, 89%. Further, the inhibition at 1 µM at AURKA came to 54%; against SYK, 82%; at SLK it was 99.9%; against SRC it was 98.9%; on VEGFR2 it was 59%. The CC15 in data set [1] came to 1580 nM. The same compound had a pCC15 in data set [1] of 5.8.

The record behind these values is patent US10968222B2, “2-azabicyclo hexane JAK inhibitor compound” (THERAVANCE BIOPHARMA R&D IP, LLC, priority 2018, dated 2021).
